Experiment: xn = mol fraction of the nth substance listed
Settings: 101 kPa, Liquid; for viscosity: Concentric cylinders viscometry; for mass density: Vibrating tube method

COCCOCCOCCOCCOC [2,5,8,11,14-pentaoxapentadecane] + CCOC(=O)C(C)O
Settings	mass density [kg/m3]	viscosity [mPa·s]
288.15 K, x2 = 0	1016.7	4.353
288.15 K, x2 = 0.0999	1018.51	4.303
288.15 K, x2 = 0.1999	1020.55	4.265
288.15 K, x2 = 0.2999	1022.59	4.226
288.15 K, x2 = 0.3998	1024.79	4.176
288.15 K, x2 = 0.4999	1027.14	4.109
288.15 K, x2 = 0.6001	1029.57	4.027
288.15 K, x2 = 0.6998	1032.25	3.906
288.15 K, x2 = 0.8001	1034.95	3.746
288.15 K, x2 = 0.9	1037.37	3.53
293.15 K, x2 = 0	1012.06	3.795
293.15 K, x2 = 0.0999	1013.83	3.749
293.15 K, x2 = 0.1999	1015.83	3.713
293.15 K, x2 = 0.2999	1017.82	3.673
293.15 K, x2 = 0.3998	1019.98	3.623
293.15 K, x2 = 0.4999	1022.26	3.557
293.15 K, x2 = 0.6001	1024.61	3.478
293.15 K, x2 = 0.6998	1027.18	3.364
293.15 K, x2 = 0.8001	1029.8	3.219
293.15 K, x2 = 0.9	1032.09	3.028
298.15 K, x2 = 0	1007.42	3.348
298.15 K, x2 = 0.0999	1009.15	3.299
298.15 K, x2 = 0.1999	1011.11	3.266
298.15 K, x2 = 0.2999	1013.05	3.23
298.15 K, x2 = 0.3998	1015.17	3.181
298.15 K, x2 = 0.4999	1017.37	3.115
298.15 K, x2 = 0.6001	1019.64	3.036
298.15 K, x2 = 0.6998	1022.11	2.929
298.15 K, x2 = 0.8001	1024.63	2.8
298.15 K, x2 = 0.9	1026.8	2.633
303.15 K, x2 = 0	1002.79	2.983
303.15 K, x2 = 0.0999	1004.48	2.933
303.15 K, x2 = 0.1999	1006.39	2.9
303.15 K, x2 = 0.2999	1008.28	2.864
303.15 K, x2 = 0.3998	1010.34	2.815
303.15 K, x2 = 0.4999	1012.47	2.752
303.15 K, x2 = 0.6001	1014.66	2.681
303.15 K, x2 = 0.6998	1017.03	2.58
303.15 K, x2 = 0.8001	1019.45	2.463
303.15 K, x2 = 0.9	1021.49	2.311
308.15 K, x2 = 0	998.153	2.668
308.15 K, x2 = 0.0999	999.806	2.626
308.15 K, x2 = 0.1999	1001.67	2.593
308.15 K, x2 = 0.2999	1003.5	2.557
308.15 K, x2 = 0.3998	1005.51	2.511
308.15 K, x2 = 0.4999	1007.57	2.452
308.15 K, x2 = 0.6001	1009.68	2.385
308.15 K, x2 = 0.6998	1011.95	2.293
308.15 K, x2 = 0.8001	1014.25	2.184
308.15 K, x2 = 0.9	1016.16	2.046
313.15 K, x2 = 0	993.523	2.407
313.15 K, x2 = 0.0999	995.132	2.367
313.15 K, x2 = 0.1999	996.945	2.336
313.15 K, x2 = 0.2999	998.729	2.301
313.15 K, x2 = 0.3998	1000.64	2.257
313.15 K, x2 = 0.4999	1002.66	2.2
313.15 K, x2 = 0.6001	1004.68	2.137
313.15 K, x2 = 0.6998	1006.87	2.053
313.15 K, x2 = 0.8001	1009.04	1.953
313.15 K, x2 = 0.9	1010.8	1.827
318.15 K, x2 = 0	988.892	2.185
318.15 K, x2 = 0.0999	990.453	2.147
318.15 K, x2 = 0.1999	992.217	2.115
318.15 K, x2 = 0.2999	993.944	2.081
318.15 K, x2 = 0.3998	995.8	2.041
318.15 K, x2 = 0.4999	997.738	1.991
318.15 K, x2 = 0.6001	999.671	1.932
318.15 K, x2 = 0.6998	1001.77	1.854
318.15 K, x2 = 0.8001	1003.81	1.76
318.15 K, x2 = 0.9	1005.43	1.642
323.15 K, x2 = 0	984.262	2.003
323.15 K, x2 = 0.0999	985.775	1.972
323.15 K, x2 = 0.1999	987.487	1.943
323.15 K, x2 = 0.2999	989.156	1.91
323.15 K, x2 = 0.3998	990.94	1.87
323.15 K, x2 = 0.4999	992.806	1.818
323.15 K, x2 = 0.6001	994.651	1.763
323.15 K, x2 = 0.6998	996.689	1.69
323.15 K, x2 = 0.8001	998.562	1.605
323.15 K, x2 = 0.9	1000.06	1.496

Reference: the NIST ThermoML archive (doi:10.1016/j.fluid.2014.04.002)
